The NIST ThermoML archive (doi:10.1016/j.jct.2010.12.027)

Columns and labels:
[1] = 298.15 K, 101 kPa, Liquid; for viscosity: Capillary tube (Ostwald / Ubbelohde) method; for mass density: Vibrating tube method
[2] = xn = mol fraction of the nth substance listed; conditions: 298.15 K, 101 kPa, Liquid; for viscosity: Capillary tube (Ostwald / Ubbelohde) method; for mass density: Vibrating tube method

CCCCN [1-butanamine]
[1]
Conditions	mass density [kg/m3]	viscosity [mPa·s]
–	732.88	0.476

CCCCN [1-butanamine] + CCCCCCn1cc[n+](C)c1.F[B-](F)(F)F
[2]
Conditions	mass density [kg/m3]	viscosity [mPa·s]
x2 = 0	732.88	0.476
x2 = 0.0492	778.02	0.889
x2 = 0.0994	809.01	1.433
x2 = 0.1997	888.25	3.137
x2 = 0.3002	943.91	6.183
x2 = 0.3525	968.66	8.532
x2 = 0.4013	989.49	11.16
x2 = 0.4492	1008.25	14.68
x2 = 0.5037	1027.64	19.56
x2 = 0.5524	1043.6	25.39
x2 = 0.6009	1058.22	32.05
x2 = 0.7036	1085.8	53.63
x2 = 0.7873	1105.23	76.62
x2 = 0.8787	1124.35	117.48

CCCCCCn1cc[n+](C)c1.F[B-](F)(F)F [1-hexyl-3-methylimidazolium tetrafluoroborate]
[1]
Conditions	mass density [kg/m3]	viscosity [mPa·s]
–	1146.7	195.37

CCCCCCn1cc[n+](C)c1.F[B-](F)(F)F [1-hexyl-3-methylimidazolium tetrafluoroborate] + C1CCOC1
[2]
Conditions	mass density [kg/m3]	viscosity [mPa·s]
x1 = 0.0498	922.89	0.891
x1 = 0.1008	956.61	1.564
x1 = 0.203	1007.44	3.869
x1 = 0.2976	1041.06	7.658
x1 = 0.3461	1054.83	10.44
x1 = 0.3965	1067.37	13.93
x1 = 0.4457	1078.09	18.37
x1 = 0.5003	1088.63	24.9
x1 = 0.5548	1097.81	33.17
x1 = 0.6083	1106.02	42.68
x1 = 0.7025	1118.37	65.77
x1 = 0.7992	1129	97.79
x1 = 0.8925	1137.77	141.64
x1 = 1	1146.7	195.37

CCCCCCn1cc[n+](C)c1.F[B-](F)(F)F [1-hexyl-3-methylimidazolium tetrafluoroborate] + CCC(C)=O
[2]
Conditions	mass density [kg/m3]	viscosity [mPa·s]
x1 = 0.0492	845.71	0.6
x1 = 0.0988	889.12	0.914
x1 = 0.2011	946.15	2.059
x1 = 0.2989	991.57	4.063
x1 = 0.3482	1010.53	5.578
x1 = 0.3972	1027.28	7.507
x1 = 0.4605	1046.8	11.08
x1 = 0.4981	1057.05	13.67
x1 = 0.55	1070.3	18.57
x1 = 0.6057	1082.75	24.46
x1 = 0.7054	1102.84	43.38
x1 = 0.7955	1119.38	69.4
x1 = 0.8931	1132.37	110.34
x1 = 1	1146.7	195.37

CCCCCCn1cc[n+](C)c1.F[B-](F)(F)F [1-hexyl-3-methylimidazolium tetrafluoroborate] + CCCCN
[2], x1 = 1
Conditions	mass density [kg/m3]	viscosity [mPa·s]
–	1146.7	195.37

CCCCCCn1cc[n+](C)c1.F[B-](F)(F)F [1-hexyl-3-methylimidazolium tetrafluoroborate] + CCOC(C)=O
[2]
Conditions	mass density [kg/m3]	viscosity [mPa·s]
x1 = 0.0498	925.56	0.738
x1 = 0.1	952.69	1.188
x1 = 0.2027	997.78	2.674
x1 = 0.302	1031.52	5.221
x1 = 0.3475	1044.35	6.846
x1 = 0.3983	1057.37	9.328
x1 = 0.4488	1068.89	12.31
x1 = 0.501	1079.8	16.47
x1 = 0.5487	1088.62	21.49
x1 = 0.6022	1097.8	28.48
x1 = 0.7075	1113.73	48.11
x1 = 0.8066	1126.46	80.43
x1 = 0.8908	1135.69	119.88
x1 = 1	1146.7	195.37

CCC(C)=O [butanone]
[1]
Conditions	mass density [kg/m3]	viscosity [mPa·s]
–	799.87	0.388

CCC(C)=O [butanone] + CCCCCCn1cc[n+](C)c1.F[B-](F)(F)F
[2], x2 = 0
Conditions	mass density [kg/m3]	viscosity [mPa·s]
–	799.87	0.388

CCOC(C)=O [ethyl acetate]
[1]
Conditions	mass density [kg/m3]	viscosity [mPa·s]
–	894.48	0.437

CCOC(C)=O [ethyl acetate] + CCCCCCn1cc[n+](C)c1.F[B-](F)(F)F
[2], x2 = 0
Conditions	mass density [kg/m3]	viscosity [mPa·s]
–	894.48	0.437

C1CCOC1 [tetrahydrofuran]
[1]
Conditions	mass density [kg/m3]	viscosity [mPa·s]
–	882.13	0.475

C1CCOC1 [tetrahydrofuran] + CCCCCCn1cc[n+](C)c1.F[B-](F)(F)F
[2], x2 = 0
Conditions	mass density [kg/m3]	viscosity [mPa·s]
–	882.13	0.475
